According to patent publication US20250057164A1, “USE OF ISOXAZOLINECARBOXAMIDE FOR SPROUT INHIBITION” (BAYER AKTIENGESELLSCHAFT, priority 2021, published 2025):

Test system: stored potato tubers (Solanum tuberosum, variety: Columbia)
Assay: Visual assessment of sprout development on stored potato tubers after spray application on a roller table
Format: in vivo
Protocol: Application was done on a roller table and were applied with a spray application covering the outside of the tubers homogeneously with the spray solution containing with the respective dose of compound of formula (I) and depending on the treatment with the additional MSO (methylated seed oil) as indicated in the following tables. The spray solutions were prepared to match an equivalent of 10 L water per ton potato.

## C=C[C@]1(C(=O)N[C@H]2CO[C@@H](C(=O)OC)C2)CC(c2cc(F)cc(F)c2)=NO1 (relative stereo) [compound of formula (I), methyl(2R*,4R*)-4-[[(5S)-3-(3,5-difluorophenyl)-5-vinyl-4H-isoxazole-5-carbonyl]amino]tetrahydrofuran-2-carboxylate]
0.2 g/to, MSO 0.5 L/to, SC 200, 0 DAA
  Relative inhibition of potato sprouting: 0%
0.2 g/to, MSO 0.5 L/to, SC 200, 71 DAA
  Relative inhibition of potato sprouting: 67%
2 g/to, MSO 0.5 L/to, SC 200, 0 DAA
  Relative inhibition of potato sprouting: 0%
2 g/to, MSO 0.5 L/to, SC 200, 71 DAA
  Relative inhibition of potato sprouting: 73%
2 g/to, no MSO, SC 200, 0 DAA
  Relative inhibition of potato sprouting: 0%
2 g/to, no MSO, SC 200, 28 DAA
  Relative inhibition of potato sprouting: 30%
2 g/to, no MSO, SC 200, 71 DAA
  Relative inhibition of potato sprouting: 18%
20 g/to, MSO 0.5 L/to, SC 200, 0 DAA
  Relative inhibition of potato sprouting: 0%
20 g/to, MSO 0.5 L/to, SC 200, 71 DAA
  Relative inhibition of potato sprouting: 93%
20 g/to, no MSO, SC 200, 0 DAA
  Relative inhibition of potato sprouting: 0%
20 g/to, no MSO, SC 200, 28 DAA
  Relative inhibition of potato sprouting: 45%
20 g/to, no MSO, SC 200, 71 DAA
  Relative inhibition of potato sprouting: 30%
200 g/to, MSO 0.5 L/to, SC 200, 0 DAA
  Relative inhibition of potato sprouting: 0%
200 g/to, MSO 0.5 L/to, SC 200, 71 DAA
  Relative inhibition of potato sprouting: 95%
